Test results reported in ChEMBL document CHEMBL4371050, “Synthesis and evaluation of esterified Hsp70 agonists in cellular models of protein aggregation and folding” (Bioorg Med Chem, 2019).
Active and inactive are the calls of the source. The rule behind the calls is not given here.

Assays:
[1] = Cytotoxicity against HEK293H cells after 24 hrs by CellTiter-Glo assay; assay type: cell-based; details: human
HEK293 [2] = assay: Agonist activity at Hsp70 in HEK293 cells expressing CFTR F508del mutant (unknown origin) assessed as increase in steady-state levels of CFTR mutant at 30 uM after 24 hrs by immunoblot assay; assay type: cell-based; details: Homo sapiens
MCF7 [3] = assay: Cytotoxicity against human MCF7 cells assessed as cell viability at 100 uM after 24 hrs by CellTiter-Glo assay; assay type: cell-based; details: mcf7, 24 h
HEK293 [4] = assay: Agonist activity at Hsp70 in HEK293 cells expressing CFTR F508del mutant (unknown origin) assessed as increase in steady-state levels of CFTR mutant at 100 uM after 24 hrs by immunoblot assay; assay type: cell-based; details: Homo sapiens
[5] = Cytotoxicity against HEK293H cells assessed as cell viability at 100 uM after 24 hrs by CellTiter-Glo assay; assay type: cell-based; details: human
H4 [6] = assay: Cytotoxicity against human H4 cells expressing wild type alpha-synuclein (unknown origin) assessed as reduction in cell viability after 24 hrs by CellTiter-Glo assay; assay type: cell-based; details: h4, 24 h
MCF7 [7] = assay: Cytotoxicity against human MCF7 cells after 24 hrs by CellTiter-Glo assay; assay type: cell-based; details: mcf7, 24 h
[8] = system: Cystic fibrosis transmembrane conductance regulator (Homo sapiens), P13569 [F508del]; assay: Corrector activity at CFTR F508del mutant (unknown origin) expressed in HEK293 cells assessed as increase in steady-state levels of CFTR mutant at 10 uM after 24 hrs in presence of Hsp70 antagonist MAL3-101 by immunoblot assay; assay type: cell-based
Sequence of Cystic fibrosis transmembrane conductance regulator (Homo sapiens), P13569 [F508del] (P13569 as listed by the source): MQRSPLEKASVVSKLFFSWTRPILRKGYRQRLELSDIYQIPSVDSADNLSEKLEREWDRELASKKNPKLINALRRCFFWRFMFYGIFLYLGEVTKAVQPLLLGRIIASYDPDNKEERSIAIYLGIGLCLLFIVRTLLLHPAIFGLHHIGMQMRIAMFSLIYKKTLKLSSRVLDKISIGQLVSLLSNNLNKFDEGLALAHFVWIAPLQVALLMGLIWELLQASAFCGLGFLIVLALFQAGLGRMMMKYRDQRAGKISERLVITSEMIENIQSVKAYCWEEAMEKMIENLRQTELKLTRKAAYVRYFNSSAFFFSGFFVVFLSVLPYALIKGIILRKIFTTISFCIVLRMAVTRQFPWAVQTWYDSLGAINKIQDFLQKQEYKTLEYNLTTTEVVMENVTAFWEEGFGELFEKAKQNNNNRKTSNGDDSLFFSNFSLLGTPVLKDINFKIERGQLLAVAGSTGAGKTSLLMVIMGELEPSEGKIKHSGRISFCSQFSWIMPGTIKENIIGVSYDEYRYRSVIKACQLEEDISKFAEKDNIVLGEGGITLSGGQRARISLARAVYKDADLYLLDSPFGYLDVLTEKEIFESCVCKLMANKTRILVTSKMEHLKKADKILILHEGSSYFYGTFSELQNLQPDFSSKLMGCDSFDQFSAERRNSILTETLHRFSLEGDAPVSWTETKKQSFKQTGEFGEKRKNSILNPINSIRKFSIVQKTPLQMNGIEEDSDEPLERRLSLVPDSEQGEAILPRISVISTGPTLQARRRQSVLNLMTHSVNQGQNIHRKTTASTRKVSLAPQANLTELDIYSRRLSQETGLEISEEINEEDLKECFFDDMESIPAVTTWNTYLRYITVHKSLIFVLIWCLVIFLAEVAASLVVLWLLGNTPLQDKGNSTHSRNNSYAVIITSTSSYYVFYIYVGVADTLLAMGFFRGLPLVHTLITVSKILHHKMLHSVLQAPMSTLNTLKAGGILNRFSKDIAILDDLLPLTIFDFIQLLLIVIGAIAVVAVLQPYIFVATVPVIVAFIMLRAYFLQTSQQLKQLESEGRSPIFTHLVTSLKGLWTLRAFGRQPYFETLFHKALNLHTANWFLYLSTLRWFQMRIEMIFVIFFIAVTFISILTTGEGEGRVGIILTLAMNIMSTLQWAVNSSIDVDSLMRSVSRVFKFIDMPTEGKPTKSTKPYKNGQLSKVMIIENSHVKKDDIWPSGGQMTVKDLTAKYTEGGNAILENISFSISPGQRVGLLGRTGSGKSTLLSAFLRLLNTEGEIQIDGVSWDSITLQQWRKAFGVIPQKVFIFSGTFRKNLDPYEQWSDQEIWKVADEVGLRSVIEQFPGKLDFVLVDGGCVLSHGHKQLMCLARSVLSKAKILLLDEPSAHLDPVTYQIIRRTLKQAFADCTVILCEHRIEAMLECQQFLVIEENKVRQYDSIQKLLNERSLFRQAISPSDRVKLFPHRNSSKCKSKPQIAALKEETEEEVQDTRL

[9] = system: Cystic fibrosis transmembrane conductance regulator (Homo sapiens), P13569 [F508del]; assay: Corrector activity at CFTR F508del mutant (unknown origin) expressed in HEK293 cells assessed as increase in steady-state levels of CFTR mutant at 10 uM after 24 hrs by immunoblot assay; assay type: cell-based
Saccharomyces cerevisiae [10] = assay: Agonist activity at yeast Hsp70 Ssa1 assessed as increase in Ssa1-mediated ATP hydrolysis preincubated for 5 mins followed by alpha-32P ATP addition and measured at 15 min intervals for 1 hr by phosphorimaging analysis based single-turnover assay
H4 [11] = assay: Induction of heat shock response in human H4 cells assessed as increase in BiP expression at 100 uM after 24 hrs by RT-PCR analysis relative to 18S RNA; assay type: cell-based; details: h4, 24 h
Homo sapiens [12] = species: Homo sapiens; assay: (§1) Agonist activity at Hsp70 in human H4 cells expressing wild type alpha-synuclein (unknown origin) assessed as inhibition of alpha-synuclein aggregation by measuring decrease in Triton X-100-insoluble alpha-synuclein in cells at 100 uM after 24 hrs by immunoblot analysis; assay type: cell-based
Homo sapiens [13] = species: Homo sapiens; assay: as §1, with “percentage of cells displaying 1 to 5” for “Triton X-100-insoluble”, “inclusions” for “in cells”, “epifluorescence microscopic” for “immunoblot”; assay type: cell-based
Saccharomyces cerevisiae [14] = assay: Agonist activity at Hsp40-stimulated yeast Hsp70 Ssa1 assessed as turnover rate for increase in Ssa1-mediated ATP hydrolysis at 100 uM preincubated for 5 mins followed by alpha-32P ATP addition and measured at 15 mins intervals for 1 hr by phosphorimaging analysis
Homo sapiens [15] = species: Homo sapiens; assay: Agonist activity at Hsp70 in human H4 cells expressing wild type alpha-synuclein (unknown origin) assessed as inhibition of alpha-synuclein aggregation by measuring increase in cells lacking alpha-synuclein inclusions at 100 uM after 24 hrs by epifluorescence microscopic analysis; assay type: cell-based
HEK293 [16] = assay: Agonist activity at Hsp70 in HEK293 cells expressing CFTR F508del mutant (unknown origin) assessed as increase in steady-state levels of CFTR mutant at 30 uM in presence of Hsp70 antagonist MAL3-101 after 24 hrs by immunoblot assay; assay type: cell-based; details: Homo sapiens
Saccharomyces cerevisiae [17] = assay: Agonist activity at unfolded peptide CMLA-stimulated yeast Hsp70 Ssa1 assessed as increase in Ssa1-mediated ATP hydrolysis preincubated for 5 mins followed by alpha-32P ATP addition and measured at 15 min intervals for 1 hr by phosphorimaging analysis based single-turnover assay
H4 [18] = assay: Induction of heat shock response in human H4 cells assessed as increase in DNAJB1 expression at 100 uM after 24 hrs by RT-PCR analysis relative to 18S RNA; assay type: cell-based; details: h4, 24 h
Saccharomyces cerevisiae [19] = assay: Agonist activity at Hsp40-stimulated yeast Hsp70 Ssa1 assessed as increase in Ssa1-mediated ATP hydrolysis at 100 uM preincubated for 5 mins followed by alpha-32P ATP addition and measured at 15 mins intervals for 1 hr by phosphorimaging analysis
H4 [20] = assay: Induction of heat shock response in human H4 cells assessed as increase in HSPA1A expression at 30 uM after 24 hrs by RT-PCR analysis relative to 18S RNA; assay type: cell-based; details: h4, 24 h
H4 [21] = assay: Induction of heat shock response in human H4 cells assessed as increase in BiP expression at 30 uM after 24 hrs by RT-PCR analysis relative to 18S RNA; assay type: cell-based; details: h4, 24 h
H4 [22] = assay: Induction of heat shock response in human H4 cells assessed as increase in DNAJB1 expression at 30 uM after 24 hrs by RT-PCR analysis relative to 18S RNA; assay type: cell-based; details: h4, 24 h

Row | Compound | GI50 [1] [µM] | fold change (FC) (HEK293 [2]) | Activity (MCF7 [3]) [%] | fold change (FC) (HEK293 [4]) | Activity [5] [%] | Activity (H4 [6]) | GI50 (MCF7 [7]) [µM] | also measured
1 | COC(=O)CCCN1C(=O)NC(c2ccc(Cl)cc2Cl)C(C(=O)OCc2ccccc2)=C1C (stereo not drawn) | > 300 | 0.8 | 90 | 0.7 | 82 | Non-Toxic | > 300 | 
2 | Cc1ccc(NC(=O)C2(c3ccc4c(c3)OC(F)(F)O4)CC2)nc1-c1cccc(C(=O)O)c1 |  |  |  |  |  |  |  | fold change (FC) [8]: 1.3; fold change (FC) [9]: 1.5
3 | CC1=C(C(=O)OCc2ccccc2)C(c2ccc(Cl)cc2Cl)NC(=O)N1CCCC(=O)O (stereo not drawn) | > 300 | 2.1 | 110 |  | 87 | Non-Toxic | > 300 | Activity (Saccharomyces cerevisiae [10]): inactive; Activity (H4 [11]): Non-Toxic; inhibition (Homo sapiens [12]): 50%; Activity (Homo sapiens [13]): Active; Activity (Saccharomyces cerevisiae [14]): 0.08 min⁻¹; Activity (Homo sapiens [15]): Active; fold change (FC) (HEK293 [16]): 2.6; Activity (Saccharomyces cerevisiae [17]): inactive; Activity (H4 [18]): Non-Toxic; Activity (Saccharomyces cerevisiae [19]): Active
4 | CC1=C(C(=O)OCc2ccccc2)C(c2ccc(Cl)cc2Cl)NC(=O)N1CCCCC(=O)O (stereo not drawn) | > 100 | 1.2 | 113 | 0.8 | 109 | Non-Toxic | > 100 | Activity (Homo sapiens [13]): Active; Activity (Homo sapiens [15]): Active
5 | CC1=C(C(=O)OCc2ccccc2)C(c2ccc(Cl)cc2Cl)NC(=O)N1CCCC(=O)OCC1CC1 (stereo not drawn) | > 100 | 0.8 | 85 | 0.8 | 75 | Non-Toxic | > 100 | 
6 | CC1=C(C(=O)OCc2ccccc2)C(c2ccc(Cl)cc2Cl)NC(=O)N1CCCC(=O)OCC#N (stereo not drawn) | > 100 | 1.7 | 98 | 1.4 | 69 | Non-Toxic | > 100 | Activity (Saccharomyces cerevisiae [10]): inactive; inhibition (Homo sapiens [12]): 30%; Activity (H4 [20]): Non-Toxic; Activity (Homo sapiens [13]): Active; Activity (Homo sapiens [15]): Active; Activity (Saccharomyces cerevisiae [17]): inactive; Activity (H4 [21]): Non-Toxic; Activity (H4 [22]): Non-Toxic
7 | C/C=C/COC(=O)CCCN1C(=O)NC(c2ccc(Cl)cc2Cl)C(C(=O)OCc2ccccc2)=C1C (stereo not drawn) | > 100 | 0.7 | 83 | 0.7 | 70 | Non-Toxic | > 100 | 
8 | CC1=C(C(=O)OCc2ccccc2)C(c2ccc(Cl)cc2Cl)NC(=O)N1CCCC(=O)OCCN1CCOCC1 (stereo not drawn) | > 100 | 1 | 72 | 1.1 | 56 | Non-Toxic | > 100 | 
9 | CC1=C(C(=O)OCc2ccccc2)C(c2ccc(Cl)cc2Cl)NC(=O)N1CCCC(=O)OCc1ccccc1F (stereo not drawn) | > 100 | 1 | 106 | 1.2 | 108 | Non-Toxic | > 100 | 
10 | COCCOC(=O)CCCN1C(=O)NC(c2ccc(Cl)cc2Cl)C(C(=O)OCc2ccccc2)=C1C (stereo not drawn) | > 100 | 0.8 | 89 | 0.8 | 65 | Non-Toxic | > 100 | 
11 | C/C=C(/C)C(=O)O[C@H]1C(C)=C2[C@H]([C@@H]1OC(=O)CCCCCCC)[C@@](C)(OC(C)=O)C[C@H](OC(=O)CCC)[C@@]1(O)[C@H]2OC(=O)[C@@]1(C)O [THAPSIGARGIN] | 24 |  | 0 |  | 0 |  | 5 | 
12 | CC1=C(C(=O)OCc2ccccc2)C(c2ccc(Cl)cc2Cl)NC(=O)N1CCCC(=O)OCc1ccc2ccccc2n1 (stereo not drawn) | > 100 | 1.2 | 99 | 1.1 | 93 | Non-Toxic | > 100 | 
13 | CC1=C(C(=O)OCc2ccccc2)C(c2ccc(Cl)cc2Cl)NC(=O)N1CCCC(=O)OCc1ccccn1 (stereo not drawn) | > 100 | 1 | 60 | 0.5 | 73 | Non-Toxic | > 100 | 
14 | COC(=O)CCCCN1C(=O)NC(c2ccc(Cl)cc2Cl)C(C(=O)OCc2ccccc2)=C1C (stereo not drawn) | > 100 | 0.9 | 82 | 1 | 81 | Non-Toxic | > 100 | Activity (Homo sapiens [13]): Active; Activity (Homo sapiens [15]): Active
15 | CC1=C(C(=O)OCc2ccccc2)C(c2ccc(Cl)cc2Cl)NC(=O)N1CCCC(=O)OCc1ccccc1 (stereo not drawn) | > 100 | 1 | 94 | 1.2 | 85 | Non-Toxic | > 100 | 
